The text on assay [1]:
To find out, a few days later I began drinking much more water than usual.
I was already measuring my weight regularly. I used three scales, to ensure that any weight change was not due to a changing scale.

The conditions of assay [2]: flavored liquid food, ad libitum; cited from earlier work.
The conditions of assay [3]: rats, liquid diet ad libitum; effect appeared after first week; cited from earlier work.

`O` [water]: the weight rise entry in assay [1] (after reducing water intake from 5 to 3 liters/day) was “about 0.7 kg”. For the same molecule, the weight lost result in assay [1] (water intake raised to 5 liters/day, over two weeks before weight stabilized) is recorded as “about 2.8 kg”.
Regarding `CC(=O)OC[C@H]1O[C@@](COC(C)=O)(O[C@H]2O[C@H](COC(C)=O)[C@@H](OC(C)=O)[C@H](OC(C)=O)[C@H]2OC(C)=O)[C@@H](OC(C)=O)[C@@H]1OC(C)=O` [sucrose octaacetate], the “weight gain versus rats eating unflavored solid food” value in assay [2] is reported as “gained more weight”.
In the case of `O=C1NS(=O)(=O)c2ccccc21` [saccharin], the “weight gain versus same food without saccharin” value in assay [3] is “gained more weight”.

The record behind these values is patent US9456619B1, “Control of caloric intake” (priority 2000, dated 2016).
